In patent EP2792360A1, “(1aR,12bS)-8-cyclohexyl-11-fluoro-N-((1-methylcyclopropyl)sulfonyl)-1a-((3-methyl-3,8-diazabicyclo[3.2.1]oct-8-yl)carbonyl)-1,1a,2,2b-tetrahydrocyclopropa[d]indolo[2,1-a][2]benzazepine-5-carboxamide for use in treating HCV” (IP Gesellschaft für Management mbH, priority 2013, dated 2014):
One block for each compound: values may come before it.

Columns and labels:
[1] = Solid form stability of forms of compound of formula (IV) (Temperature / Humidity Controlled XRPD, storage, suspension); format: physicochemical
[2] = Hygroscopicity of solid forms of compound of formula (IV) (Ph. Eur. classification); format: physicochemical
Method: For the thermogravimetric analyses, approx. 5 - 10 mg of sample were placed in aluminum pans, accurately weighed and hermetically closed with perforation lids. […] The samples were then heated under a flow of nitrogen of about 50 mL/min using a heating rate of 5 K/min. The term "micronization" denotes a process whereby the particle size of a solid material is diminished to a d50 value of less than IOµm by the aid of a suitable method, such as milling, bashing or grinding. […] The term "anti-solvent crystallization" denotes a process wherein supers aturation and as a result thereof crystallisation is achieved by addition of an antisolvent to the product solution. The term "ambient conditions" denotes conditions as experienced in a standard laboratory, e.g. atmospheric pressure, air, ambient temperature between 18 °C and 28 °C, humidity between 30 %rH and 80 %rH. The term "hygroscopicity" describes the ability of a solid material to adsorb moisture. The hygroscopicity of a given API is characterized [European Pharmacopoeia - 6th Edition (2008), Chapter 5.11) by the increase in mass when the relative humidity is raised from 0 %rH to 90 %rH: o non-hygroscopic: weight increase Am < 0.2%; o slightly hygroscopic: weight increase 0.2% < Am < 2.0%; o hygroscopic: weight increase 2.0% < Am < 15.0%; o very hygroscopic: weight increase Am > 15.0%; o deliquescent: sufficient water is adsorbed to form a liquid. The IUPAC lamda convention (W.H. Powell, Pure & Appl. Chem. […] The bonding number "n" of a heteroatom is the sum of the total number of valence bonds to adjacent atoms, if any, and the number of attached hydrogen atoms. The bonding number of a heteroatom is standard when it has the value given in the following table: n=4: C, Si, Ge, Sn, Pb; n=3 B, N, P, As, Sb, Bi, n=2: O, S, Se, Te, Po; n=l; F, CI, Br, I, At. A nonstandard bonding number of a (neutral) heteroatom is indicated by the symbol "λη", where "n" is the bonding number. […]

[3] = in vitro dissolution of micronized powders in SGF and FeSSIF (miniaturized, non-sink); format: physicochemical
Method: Example 28: in vitro Dissolution Results: The in vitro dissolution studies performed in this work were conducted in a miniaturized system with 100 mL dissolution medium per experiment. […] Simulated gastric fluid (SGF) was prepared with 2 g/L NaCl and 1 g/L Triton® X-100 in 0.1 N HCl. The resulting measured pH of SGF was 1.2. Simulated fed state intestinal fluid (FeSSIF) was prepared as previously reported in […]. et al. (Pharm. Res. […] Oral absorption of a drug compound from a solid dosage form is dependent on dissolution rate and solubility. […] Figure 21 of WO/2013/057124presents the dissolution profiles measured in simulated gastric fluid (SGF) and Figure 22 of WO/2013/057124shows the dissolution profiles in simulated fed state intestinal fluid (FeSSIF). […] Changes of pH values in the dissolution test samples taken at different time points were not observed. The ranking of the different solid forms with respect to dissolution speed and maximum drug concentration achieved was identical in both media. The differences in the dissolution profiles in SGF and FeSSIF can be explained by the different composition of the two media since the dissolution generally depends on a variety of factors such as pH, surfactant, buffer capacity, ionic strength, etc. […]

[4] = Stability experiment for polymorph Form A of Compound 1 (stability chamber); format: physicochemical; conditions: 40 °C for 30 days
Method: CHARACTERIZATION EXAMPLE 13 - Stability Experiment for Polymorph Form A ({drug1a}) of Compound 1 (drug 1): The physical stability of Form A ({drug1a}) of Compound 1 (drug 1) was determined as follows. Compound 1 (drug 1) prepared according to Preparation Example 3 was analyzed by pXRD, DSC, HPLC and 1H-NMR and found to be of pure crystal Form A ({drug1a}) of 99.9 % purity (by HPLC peak area at 230 nm detection wavelength). An aliquot of the sample (3.0 g) was placed in a primary polyethylene bag, the primary bag was flushed with nitrogen gas and sealed. The primary polyethylene bag was then placed in a secondary polyethylene bag which was again flushed with nitrogen gas and a silica gel sachet was placed between the inner and the outer bag. The double bagged material was then placed in a triple laminated aluminum pouch and placed in a stability chamber at 40 °C for 30 days. Analysis by HPLC and 1H-NMR of the resulting material indicated pure Form A ({drug1a}) of Compound 1 (drug 1) of 99.9 % purity (by HPLC peak area at 230 nm). […] The triclinic cell parameters were determined to be: a = 14.835(7) A, b = 15.216(8) A, c = 18.790(10) A, alpha = 90.306(7) °, beta = 93.619(7) °, gamma = 1 13.045(7) °, volume = 3893(3) A3. The space group was determined to be P-1. The molecular weight was 468.23 giving a calculated density of 1.598g/cm3, and µ(Mo) = 0.50mm"1 for Z = 8. […]

[5] = Relative stability (non-competitive and competitive interconversion) experiments of crystal forms of Compound 1
Method: For the non-competitive experiments, only a single starting crystal form was used to study the potential conversion to another more stabb form. […] The slurry was cooled to 25-30 °C, filtered, suction dried for 1 hour and dried in a vacuum oven at 70 °C and 8 kPa absolute pressure for 12 hours. […] The slurry was cooled to 25-30 °C, filtered, suction dried for 1 hour and dried in a vacuum oven at 70 °C and 8 kPa absolute pressure for 12 hours. […] The slurry was cooled to 25-30 °C, filtered, suction dried for 1 hour and dried in a vacuum oven at 70 °C and 8 kPa absolute pressure for 12 hours.

physchem = assay: physchem
Method: Anal. Chem. Instrum. […] Drug Delivery Rev. […] The binding constant (K) of the gamma-CD inclusion complex ({drug4g}) was calculated from the initial straight line portion of the phase solubility diagram by linear regression, according to the following equation [T. Higuchi et al., Adv. Anal. Chem. Instrum.

Structure (SMILES): Cc1onc(-c2ccc(F)cc2)c1COc1ccc(C(=O)N2CCS(=O)(=O)CC2)cn1 [Form C ({drug4c}), (1,1-dioxo-1lambda6-thiomorpholin-4-yl)-{6-[3-(4-fluoro-phenyl)-5-methyl-isoxazol-4-ylmethoxy]-pyridin-3-yl]-methanone]
behaviour in the presence of water in suspended state [1]: transforms into Form B
thermodynamic stability of the solid form [1]: most stable polymorph overall
phase change upon storage at 100 rH at ambient temperature ([1]; Form C: prolonged period, e.g. 30 days): does not induce this phase change
solid form changes at elevated temperature ([1]; Temperature Controlled XRPD): do not show solid form changes
hygroscopicity relative to Form A [2]: less hygroscopic than Form A
solubility in simulated gastric fluid (SGF) [3]: considerably improved as compared to Form B

crystal form by pXRD and DSC after storage [4]: pure polymorphForm A
purity (by HPLC peak area at 230 nm) after storage ([4]; double polyethylene bags under nitrogen in aluminum pouch, 99.9 % before storage): 99.9%
crystal form of the resulting material ([5]; non-competitive, refluxed in deionized water at about 95 °C for 3 hours, pXRD, DSC, TGA, 1H-NMR): remained unchanged
Structure (SMILES): COc1ccc(Cl)c(S(=O)(=O)NC(=O)c2cn3cc(C(F)(F)F)cc(Cl)c3n2)c1 [Form A ({drug1a}), 8-chloro-N-[(2-chloro-5-methoxyphenyl)sulfonyl]-6-(trifluoromethyl)-imidazo[1,2-a]pyridine-2-carboxamide]
relative thermodynamic stability of polymorph form ([5]; water heated to 95 °C or methanol heated to 55 °C): most thermodynamically stable polymorph form

Structure (SMILES): Cc1onc(-c2ccc(F)cc2)c1COc1ccc(C(=O)N2CCS(=O)(=O)CC2)cn1 [gamma-CD inclusion complex ({drug4g}), (1,1-dioxo-1lambda6-thiomorpholin-4-yl)-{6-[3-(4-fluoro-phenyl)-5-methyl-isoxazol-4-ylmethoxy]-pyridin-3-yl]-methanone]
binding constant (K) (physchem): 510.4 M⁻¹
initial concentration achieved in dissolution ([3]; SGF and FeSSIF, room temperature, dropped in the first 60 min to a level comparable to polymorph C): much higher initial concentration
